What was measured:
Beta-secretase 1 [1] = target: T1, Beta-secretase 1 (Homo sapiens, UniProt P56817); assay: Inhibition of BACE1 by FRET assay; set-up: concentration or dose not given beside the values; details: concentration not given here
Beta-secretase 1 [2] = target: T1, Beta-secretase 1; assay: Inhibition of BACE1 at 20 ug/ml by FRET assay

T1 sequence (P56817 whole entry): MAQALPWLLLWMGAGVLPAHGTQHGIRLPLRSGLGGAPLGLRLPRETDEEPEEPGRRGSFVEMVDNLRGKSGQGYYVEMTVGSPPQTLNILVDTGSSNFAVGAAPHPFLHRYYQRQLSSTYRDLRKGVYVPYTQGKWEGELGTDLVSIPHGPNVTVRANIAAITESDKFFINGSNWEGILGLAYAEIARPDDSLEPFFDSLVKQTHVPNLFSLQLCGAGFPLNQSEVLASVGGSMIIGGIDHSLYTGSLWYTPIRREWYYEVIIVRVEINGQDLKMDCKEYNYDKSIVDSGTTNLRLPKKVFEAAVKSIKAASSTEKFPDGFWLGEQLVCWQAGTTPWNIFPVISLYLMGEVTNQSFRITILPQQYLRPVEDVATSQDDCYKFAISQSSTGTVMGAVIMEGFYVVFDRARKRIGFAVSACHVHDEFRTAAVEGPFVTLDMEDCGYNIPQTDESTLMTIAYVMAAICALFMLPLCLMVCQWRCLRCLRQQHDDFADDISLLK

## CCCCCCNCCOc1ccc(Br)cc1NC(=O)Cc1ccccc1Cl
Beta-secretase 1 [1]
  inhibition: 79.4%
Beta-secretase 1 [2]
  IC50: 29.4 µM

## COc1cccc(CC(=O)Nc2cc(Br)ccc2OCCN2CCOCC2)c1
Beta-secretase 1 [1]
  inhibition: 20.9%

## O=C(Cc1ccccc1)Nc1cc(Br)ccc1OCCN1CCOCC1
Beta-secretase 1 [1]
  inhibition: 24.5%

## NCCCCCCNCCOc1ccc(Br)cc1NC(=O)Cc1ccccc1Cl
Beta-secretase 1 [2]
  IC50: 27.9 µM

## O=C(Cc1ccccc1Cl)Nc1cc(Br)ccc1OCCNC1CCCCC1
Beta-secretase 1 [1]
  inhibition: 87.7%
Beta-secretase 1 [2]
  IC50: > 42.8 µM

## O=C(Cc1ccccc1Cl)Nc1cc(Br)ccc1OCCNC1CC1
Beta-secretase 1 [1]
  inhibition: 77.1%
Beta-secretase 1 [2]
  IC50: 37.6 µM

## O=C(Cc1cccc([N+](=O)[O-])c1)Nc1cc(Br)ccc1OCCN1CCOCC1
Beta-secretase 1 [1]
  inhibition: 20.3%

## NCCCNCCOc1ccc(Br)cc1NC(=O)Cc1ccccc1Cl
Beta-secretase 1 [1]
  inhibition: 77.9%
Beta-secretase 1 [2]
  IC50: > 45.2 µM

## O=C(Cc1ccccc1Cl)Nc1cc(Br)ccc1OCCNCCCCCO
Beta-secretase 1 [1]
  inhibition: 67.5%
Beta-secretase 1 [2]
  IC50: > 42.5 µM

## O=C(Cc1ccccc1Cl)Nc1cc(Br)ccc1OCCN1CCOCC1
Beta-secretase 1 [1]
  inhibition: 36.8%

## O=C(Cc1ccccc1Cl)Nc1cc(Br)ccc1OCCN1CCCCC1
Beta-secretase 1 [1]
  inhibition: 61.9%
Beta-secretase 1 [2]
  IC50: > 44.2 µM

— ChEMBL document CHEMBL1212843, “Dual-target-directed 1,3-diphenylurea derivatives: BACE 1 inhibitor and metal chelator against Alzheimer's disease” (Bioorg Med Chem, 2010)
